# Experimental data taken from patent US20150011423A1, “MEANS AND METHODS FOR ASSESSING KIDNEY TOXICITY” (BASF SE, priority 2011, published 2015).
# Marks after values point to notes of the source that are not given here.
# Tested on: rats
# Experiment: 28-day repeated dose study in rats with mass spectrometry-based plasma metabolite profiling (GC-MS, LC-MS, SPE-LC-MS); treatment ratios versus control
# Conditions: plasma; for Adrenaline (Epinephrine), treatment ratio versus control / Glucosamine, treatment ratio versus control / Histamine, treatment ratio versus control / Mannosamine, treatment ratio versus control: Table 2b glomerular-tubular defect
# [1] = female rats, day 14, high dose, Table 3a tubular defect
# [2] = female rats, day 14, high dose, Table 3b tubular defect
# [3] = female rats, day 28, high dose, Table 3a tubular defect
# [4] = female rats, day 28, high dose, Table 3b tubular defect
# [5] = male rats, day 14, high dose, Table 3c tubular defect
# [6] = male rats, day 14, high dose, Table 3d tubular defect
# [7] = male rats, day 28, high dose, Table 3c tubular defect
# [8] = male rats, day 28, high dose, Table 3d tubular defect
# [9] = female rats, day 14, high dose, Table 2a glomerular-tubular defect
# [10] = female rats, day 28, high dose, Table 2a glomerular-tubular defect
# [11] = male rats, day 7, high dose, Table 2c glomerular-tubular defect
# [12] = male rats, day 7, high dose, Table 2d glomerular-tubular defect
# [13] = male rats, day 14, high dose, Table 2c glomerular-tubular defect
# [14] = male rats, day 14, high dose, Table 2d glomerular-tubular defect
# [15] = male rats, day 28, high dose, Table 2c glomerular-tubular defect
# [16] = male rats, day 28, high dose, Table 2d glomerular-tubular defect
# [17] = female rats, day 28, high dose, Table 5a tubular necrosis
# [18] = female rats, day 28, high dose, Table 5b tubular necrosis
# Procedure: A group of each 5 male and female rats was dosed once daily with the indicated compounds (see Table 9, below for compounds, applied doses and administration details) over 28 days.
# Each dose group in the studies consisted of five rats per sex. Additional groups of each 5 male and female animals served as controls. Before starting the treatment period, animals, which were 62-64 days old when supplied, were acclimatized to the housing and environmental conditions for 7 days. All animals of the animal population were kept under the same constant temperature (20-24±3° C.) and the same constant humidity (30-70%). The animals of the animal population were fed ad libitum. The food to be used was essentially free of chemical or microbial contaminants. Drinking water was also offered ad libitum. […] The illumination period was 12 hours light followed by 12 hours darkness (12 hours light, from 6:00 to 18:00, and 12 hours darkness, from 18:00 to 6:00). […] The test substances (compounds in Table 9 were dosed and administered as described in the table above.
# In the morning of day 7, 14, and 28, blood was taken from the retroorbital venous plexus from fasted anaesthetized animals. From each animal, 1 ml of blood was collected with EDTA as anticoagulant. The samples were centrifuged for generation of plasma. All plasma samples were covered with a N2 atmosphere and then stored at −80° C. until analysis.
# For mass spectrometry-based metabolite profiling analyses plasma samples were extracted and a polar and a non-polar (lipid) fraction was obtained. For GC-MS analysis, the non-polar fraction was treated with methanol under acidic conditions to yield the fatty acid methyl esters. Both fractions were further derivatised with O-methyl-hydroxyamine hydrochloride and pyridine to convert Oxo-groups to O-methyloximes and subsequently with a silylating agent before analysis. In LC-MS analysis, both fractions were reconstituted in appropriate solvent mixtures. HPLC was performed by gradient elution on reversed phase separation columns.
# Steroids and their metabolites were measured by online SPE-LC-MS (Solid phase extraction-LC-MS).
# Following comprehensive analytical validation steps, the data for each analyte were normalized against data from pool samples. These samples were run in parallel through the whole process to account for process variability. The significance of treatment group values specific for sex, treatment duration and metabolite was determined by comparing means of the treated groups to the means of the respective untreated control groups using WELCH-test and quantified with treatment ratios versus control and p-values.
smiles,measurement,setting,value
N.N.O=C([O-])C1(C(=O)[O-])CCC1.[Pt+2] [Carboplatin],"Creatine, treatment ratio versus control",[1],1.22 *
same,"Creatinine, treatment ratio versus control",[1],0.85
same,"Galactose, lipid fraction, treatment ratio versus control",[1],1.17 *
same,"Glucuronic acid, treatment ratio versus control",[1],1.36
same,"Glycerol-3-phosphate, polar fraction, treatment ratio versus control",[1],1.66 *
same,"Glycine, treatment ratio versus control",[1],1.08
same,"Histidine, treatment ratio versus control",[1],1.03
same,"Isoleucine, treatment ratio versus control",[1],1.09 *
same,"Leucine, treatment ratio versus control",[1],1.13 *
same,"Lysophosphatidylcholine (C18:1), treatment ratio versus control",[1],0.98
same,"Phosphatidylcholine No 02, treatment ratio versus control",[1],1.07 *
same,"TAG No 05, treatment ratio versus control",[1],1.9 *
same,"Threonic acid, treatment ratio versus control",[1],1.14
same,"Threonine, treatment ratio versus control",[1],0.99
same,"Uracil, treatment ratio versus control",[1],1.07
same,"Valine, treatment ratio versus control",[1],1.07 *
same,"Xylitol, treatment ratio versus control",[1],0.83
same,"Cysteine, treatment ratio versus control",[2],0.83 *
same,"Glycerol, polar fraction, treatment ratio versus control",[2],0.88^
same,"Hippuric acid, treatment ratio versus control",[2],0.59^
same,"Indole-3-acetic acid, treatment ratio versus control",[2],0.38 *
same,"Spermidine, treatment ratio versus control",[2],0.95^
same,"Sucrose, treatment ratio versus control",[2],0.67 *
same,"Creatine, treatment ratio versus control",[3],1.41 *
same,"Creatinine, treatment ratio versus control",[3],1.59 *
same,"Galactose, lipid fraction, treatment ratio versus control",[3],0.84^
same,"Glucuronic acid, treatment ratio versus control",[3],1.24 *
same,"Glycerol-3-phosphate, polar fraction, treatment ratio versus control",[3],2.2 *
same,"Glycine, treatment ratio versus control",[3],1.17 *
same,"Histidine, treatment ratio versus control",[3],1.3 *
same,"Isoleucine, treatment ratio versus control",[3],1.35 *
same,"Leucine, treatment ratio versus control",[3],1.38 *
same,"Lysophosphatidylcholine (C18:1), treatment ratio versus control",[3],1.12 *
same,"Phosphatidylcholine No 02, treatment ratio versus control",[3],0.97^
same,"TAG No 05, treatment ratio versus control",[3],1.27 *
same,"Threonic acid, treatment ratio versus control",[3],1.23 *
same,"Threonine, treatment ratio versus control",[3],1.24 *
same,"Uracil, treatment ratio versus control",[3],1.37 *
same,"Valine, treatment ratio versus control",[3],1.25 *
same,"Xylitol, treatment ratio versus control",[3],1.56 *
same,"Cysteine, treatment ratio versus control",[4],0.67
same,"Glycerol, polar fraction, treatment ratio versus control",[4],0.78 *
same,"Hippuric acid, treatment ratio versus control",[4],0.3 *
same,"Indole-3-acetic acid, treatment ratio versus control",[4],0.65
same,"Spermidine, treatment ratio versus control",[4],0.69 *
same,"Sucrose, treatment ratio versus control",[4],0.61
same,"Allantoin, treatment ratio versus control",[5],1.4
same,"Creatine, treatment ratio versus control",[5],1.32 *
same,"Glycerol-3-phosphate, polar fraction, treatment ratio versus control",[5],1.59 *
same,"Histidine, treatment ratio versus control",[5],1.02
same,"Kynurenic acid, treatment ratio versus control",[5],1.21 *
same,"Nervonic acid (C24:cis[15]1), treatment ratio versus control",[5],1.02
same,"Pantothenic acid, treatment ratio versus control",[5],1.17
same,"Pseudouridine, treatment ratio versus control",[5],1.33 *
same,"Taurine, treatment ratio versus control",[5],1.18 *
same,"Urea, treatment ratio versus control",[5],1.47 *
same,"16-Methylheptadecanoic acid, treatment ratio versus control",[6],0.74 *
same,"Linolenic acid (C18:cis[9,12,15]3), treatment ratio versus control",[6],0.75
same,"Phosphatidylcholine No 02, treatment ratio versus control",[6],0.87 *
same,"Phosphatidylcholine No 04, treatment ratio versus control",[6],0.74 *
same,"TAG (C18:1, C18:2), treatment ratio versus control",[6],0.79 *
same,"Allantoin, treatment ratio versus control",[7],1.24 *
same,"Creatine, treatment ratio versus control",[7],1.42 *
same,"Glycerol-3-phosphate, polar fraction, treatment ratio versus control",[7],1.61 *
same,"Histidine, treatment ratio versus control",[7],1.22 *
same,"Kynurenic acid, treatment ratio versus control",[7],1.7
same,"Nervonic acid (C24:cis[15]1), treatment ratio versus control",[7],1.51 *
same,"Pantothenic acid, treatment ratio versus control",[7],1.47 *
same,"Pseudouridine, treatment ratio versus control",[7],1.11 *
same,"Taurine, treatment ratio versus control",[7],1.54 *
same,"Urea, treatment ratio versus control",[7],1.08
same,"16-Methylheptadecanoic acid, treatment ratio versus control",[8],0.51 *
same,"Linolenic acid (C18:cis[9,12,15]3), treatment ratio versus control",[8],0.7 *
same,"Phosphatidylcholine No 02, treatment ratio versus control",[8],0.91 *
same,"Phosphatidylcholine No 04, treatment ratio versus control",[8],0.78
same,"TAG (C18:1, C18:2), treatment ratio versus control",[8],0.62 *
C[C@H](CS)C(=O)N1CCC[C@H]1C(=O)O [Captopril],"3-Hydroxyindole, treatment ratio versus control",[9],1.35
same,"3-Indoxylsulfate, treatment ratio versus control",[9],1.2
same,"Creatine, treatment ratio versus control",[9],1.18*
same,"Creatinine, treatment ratio versus control",[9],1.06
same,"Elaidic acid (C18:trans[9]1), treatment ratio versus control",[9],1.18
same,"Lysophosphatidylcholine (C20:4), treatment ratio versus control",[9],1.04
same,"Xylitol, treatment ratio versus control",[9],1.17
same,"Adrenaline (Epinephrine), treatment ratio versus control","female rats, day 14, high dose",1.27
same,"Glucosamine, treatment ratio versus control","female rats, day 14, high dose",0.4 *
same,"Histamine, treatment ratio versus control","female rats, day 14, high dose",0.93
same,"Mannosamine, treatment ratio versus control","female rats, day 14, high dose",0.69 *
same,"3-Hydroxyindole, treatment ratio versus control",[10],1.21 *
same,"3-Indoxylsulfate, treatment ratio versus control",[10],1.21 *
same,"Creatine, treatment ratio versus control",[10],1.33 *
same,"Creatinine, treatment ratio versus control",[10],1.93 *
same,"Elaidic acid (C18:trans[9]1), treatment ratio versus control",[10],1.22 *
same,"Lysophosphatidylcholine (C20:4), treatment ratio versus control",[10],1.24 *
same,"Xylitol, treatment ratio versus control",[10],1.31 *
same,"Adrenaline (Epinephrine), treatment ratio versus control","female rats, day 28, high dose",0.28 *
same,"Glucosamine, treatment ratio versus control","female rats, day 28, high dose",1.06^
same,"Histamine, treatment ratio versus control","female rats, day 28, high dose",0.81 *
same,"Mannosamine, treatment ratio versus control","female rats, day 28, high dose",1.04^
same,"Creatine, treatment ratio versus control",[11],1.16 *
same,"Creatinine, treatment ratio versus control",[11],1.32^
same,"Glycerol-3-phosphate, polar fraction, treatment ratio versus control",[11],1.28 *
same,"Lysophosphatidylcholine (C18:2), treatment ratio versus control",[11],1.07 *
same,"Threonic acid, treatment ratio versus control",[11],1.37 *
same,"4-Hydroxy-3-methoxyphenylglycol (HMPG), treatment ratio versus control",[12],1.07^
same,"Cysteine, treatment ratio versus control",[12],0.59 *
same,"Isopalmitic acid (C16:0), treatment ratio versus control",[12],0.78 *
same,"Metanephrine, treatment ratio versus control",[12],0.81 *
same,"Normetanephrine, treatment ratio versus control",[12],0.9
same,"Creatine, treatment ratio versus control",[13],1.06 *
same,"Creatinine, treatment ratio versus control",[13],1.12 *
same,"Glycerol-3-phosphate, polar fraction, treatment ratio versus control",[13],0.97^
same,"Lysophosphatidylcholine (C18:2), treatment ratio versus control",[13],1.2 *
same,"Threonic acid, treatment ratio versus control",[13],1.27 *
same,"4-Hydroxy-3-methoxyphenylglycol (HMPG), treatment ratio versus control",[14],0.91 *
same,"Cysteine, treatment ratio versus control",[14],0.77 *
same,"Isopalmitic acid (C16:0), treatment ratio versus control",[14],0.64 *
same,"Metanephrine, treatment ratio versus control",[14],0.7 *
same,"Normetanephrine, treatment ratio versus control",[14],0.89 *
same,"Creatine, treatment ratio versus control",[15],1.31
same,"Creatinine, treatment ratio versus control",[15],1.05
same,"Glycerol-3-phosphate, polar fraction, treatment ratio versus control",[15],1.29 *
same,"Lysophosphatidylcholine (C18:2), treatment ratio versus control",[15],1.09
same,"Threonic acid, treatment ratio versus control",[15],1.14 *
same,"4-Hydroxy-3-methoxyphenylglycol (HMPG), treatment ratio versus control",[16],0.86 *
same,"Cysteine, treatment ratio versus control",[16],0.72 *
same,"Isopalmitic acid (C16:0), treatment ratio versus control",[16],0.83^
same,"Metanephrine, treatment ratio versus control",[16],0.76 *
same,"Normetanephrine, treatment ratio versus control",[16],0.73 *
C[C@@H]1[C@H](O)[C@@H](C)/C=C/C=C/C=C/C=C/C=C/C=C/C=C/[C@H](O[C@@H]2O[C@H](C)[C@@H](O)[C@H](N)[C@@H]2O)C[C@@H]2O[C@](O)(C[C@@H](O)C[C@@H](O)[C@H](O)CC[C@@H](O)C[C@@H](O)CC(=O)O[C@H]1C)C[C@H](O)[C@H]2C(=O)O [Amphotericin B],"Docosahexaenoic acid (C22:cis[4,7,10,13,16,19]6), treatment ratio versus control",[17],1.32 *
same,"Docosapentaenoic acid (C22:cis[7,10,13,16,19]5), treatment ratio versus control",[17],1.23 *
same,"Eicosanoic acid (C20:0), treatment ratio versus control",[17],1.18 *
same,"Glycerol, lipid fraction, treatment ratio versus control",[17],1.31 *
same,"Leucine, treatment ratio versus control",[17],1.21 *
same,"Phosphate (inorganic and organic phosphates), treatment ratio versus control",[17],1.25 *
same,"Hippuric acid, treatment ratio versus control",[18],0.44 *
same,"Lactate, treatment ratio versus control",[18],0.68 *
